Results on four compounds are retold here after patent US20120258938A1, “Enzymatic Production or Chemical Synthesis and Uses for 5,7-Dienes and UVB Conversion Products Thereof” (priority 2008, published 2012).

For experiment [1], the system named is AbC1 hamster melanoma cells. In words: Soft agar colony formation, AbC1 melanoma. Type of experiment: cell-based. The method, then:
Growth and survival of prostate cancer cells (PC3) and melanoma cells SKMEL 188 and AbC1 was determined by following their ability to form colonies in soft agar. Cells growing in monolayer culture were trypsinized and resuspended (1,000 cells/well) in 0.25 ml medium containing 0.4% agarose and 5% charcoal stripped serum (HyClone).
Cell suspensions were added to 0.8% agar layer in 24 well plates. Compounds were added from ethanol stocks (100 μM) to final concentrations of 0.1 nM or 10 nM, in 100 μL media. Each condition was tested in quadruplicate. An ethanol solvent control (amount of ethanol equivalent to test) as well as a media-only control was included in the assay. […] […] Colonies were then counted under the microscope and number of units was calculated as number of colonies formed divided by the number of cells seeded×100.

The next experiment has as its system NFκBI (IκBα). In words: Western blot IκB-α in HaCaT and normal keratinocytes. The conditions noted are these: 100 nM, time dependant. Type of experiment: cell-based, human. How it is done: HaCaT keratinocytes were treated with 20,23-dihydroxycholecalciferol for indicated time: 0 h, 30 min, 1 h, 4 h, 16 h and 24 h, at the concentration of 10^−7 [M]. Cells were lysed and whole cell extract has been prepared. The equal amount of proteins calculates using Bradford method has been subjected to electrophoresis in SDS-PAGE 7-15% gel and transferred to a PVDF membrane (Millipore). The primary antibodies used were the rabbit polyclonal antibodies of anti+ IκB-α (Santa Cruz), 1:250 dilution, anti-p65 (Santa Cruz) 1:500 dilution and anti-β actin-peroxidase (Sigma) 1:1000 dilution. Secondary antibody used was anti rabbit-HRP (Santa Cruz) 1:7,000 dilution.
(In general: A western blot detects proteins with antibodies after separation by electrophoresis.)

In experiment [2] the test system is K562 human chronic myeloid leukemia cells. In words: Viable cell count, K562 cells. Type of experiment: cell-based. The conditions noted are these: 10^-7 M, 7 days. The method, then:
K562 human chronic myeloid leukemia (erythroleukemia) and MEL mouse erytholeukemia cells were cultured in RPMI 1640 containing 10% FBS and treated with the drugs at concentrations 0.1 μM. A 0.1% ethanol (EtOH) or 2% DMSO were used as negative or positive control, respectively to estimate the vehicle effect and the ability of the cells to differentiate. Media were exchanged every 72 h and drugs added every day. Growth of cultures was estimated by counting number of viable cells (trypan blue negative cells) as described previously.

The test system of another experiment is MG-63. In words: Flow cytometry cell cycle and subG1, MG-63. Type of experiment: cell-based, human. The settings on record: MG-63, 24 h. The method, then: (§1) MD-MBA-231, MG-63, PC-3, and WM164 cells were seeded into Petri dishes and then incubated for 24 h with 20-hydroxycholecalciferol in DMEM medium containing 5% FBS. Then cells were fixed, DNA stained and samples read with flow cytometer as described (7). Data was analyzed with Cell Quest (BD Biosciences). Cell cycle phases were assessed in viable cell populations and subG1 contents were calculated within whole cell population.
Background: In flow cytometry, cells or beads pass a laser one at a time.

The subject of a further experiment is WM164. The experiment in a line: Flow cytometry cell cycle and subG1, WM164. Type of experiment: cell-based. The conditions noted are these: WM164, 24 h. The method, then:
as §1

Experiment [3] has as its system collagen-induced arthritis (CIA) in DBA/1 Lac J mice. In words: Type II collagen-induced arthritis (CIA) model. Type of experiment: in vivo, mouse. The settings on record: i.p. every day at 2.5 μg/kg from day 14 post CII immunization. The source says: The CIA model in DBA/1 Lac J mice has been widely studied as a model with some features of human RA, and has served as a reliable model to study various mediators and therapies of autoimmune arthritis. The immunization of DBA/1 Lac J mice with native bovine CII in complete Freund's adjuvant (CFA) is followed 10-14 days later by the onset of arthritis in the distal extremities. […] The arthritis is characterized by acute, subacute and chronic inflammation that correlates with histologic changes in distal extremity joints that progressively worsens during the subsequent 10 to 40 day period. The arthritis is dependent on the generation of inflammatory mediators from activation of the complement cascade by anti-CII antibodies, the infiltration of neutrophils, monocytes and T cells into the joint resulting in liberation of inflammatory cytokines and various proteases (42).
Twenty-four DBA/1 Lac J female mice 6 wks old were immunized with bovine CII in CFA. […] Arthritis severity was assessed every 3-4 days by two observers and each paw was given a score of 0=no swelling; 1=slight swelling and redness; 2=moderate swelling and redness; 3=marked swelling and redness; and 4=marked swelling and redness with deformity. […]

Experiment [4] deals with immortalized normal epidermal melanocytes (PIG1 line). In words: Proliferation of PIG1 melanocytes. The settings on record: PIG1, 72 h. Type of experiment: cell-based.

For `C=C1CC[C@H](O)C/C1=C/C=C1\CCC[C@]2(C)[C@@H](C(C)(O)CC(O)CC(C)C)CC[C@@H]12` (stereo partly drawn) [20,23-dihydroxycholecalciferol, (5Z,7E)-9,10-secocholesta-5,7,10(19)-triene-3β,20,23-triol], the “decrease of colony formation in soft agar” value in experiment [1] (AbC1, 0.1 nM) is given as 30%; in experiment [1] (AbC1, 10 nM), “approximately 50%”. The “NFκBI (IκBα) protein levels” value with NFκBI (IκBα) was “induced an increase in NFκBI (IκBα) protein levels”.
As to `C=C1CC[C@H](O)C/C1=C/C=C1\CCC[C@]2(C)[C@@H](C(C)=O)CC[C@@H]12` [pD3, (5Z,7E)-3β-hydroxy-9,10-secopregna-5,7,10(19)-trien-20-one], the “proliferation of K562 cells” value in experiment [2] is given as “inhibit proliferation”.
Consider `C=C1CC[C@H](O)C/C1=C/C=C1\CCC[C@@]2(C)[C@H]1CC[C@@H]2[C@@](C)(O)CCCC(C)C` [20(OH)D3, (5Z,7E)-9,10-secocholesta-5,7,10(19)-triene-3β,20-diol], for which, in the experiment with MG-63, the “G0/G1 of viable cells” value is 52%, the “G2/M of viable cells” value is listed as 15, the “S of viable cells” value is listed as 33% and the “Viable Cells” value was 18. The same compound displayed a subG1 with MG-63 (whole cell population) of 82. In addition, in the experiment on WM164, the “G0/G1 of viable cells” value stood at 70%, the “G2/M of viable cells” value was determined as 7, the “S of viable cells” value was 24% and the “Viable Cells” value was 87. The compound further gave a subG1 with WM164 (whole cell population) of 13. Besides, the “arthritis severity (CIA)” value in experiment [3] is “suppresses CIA”.
Turning to `C=C1/C(=C\C=C2/CCC[C@]3(C)[C@@H]([C@H](C)CCCC(C)(C)O)CC[C@@H]23)C[C@@H](O)C[C@@H]1O` [1α,25-dihydroxycholecalciferol, (5Z,7E)-9,10-secocholesta-5,7,10(19)-triene-1α,3β,25-triol, reference compound], the proliferation entry in experiment [4] is listed as “Dose dependent inhibition of the proliferation”.
